Measurements: patent publication US12312332B2 (Merck Sharp & Dohme LLC., priority 2019, dated 2025)

Target: T1, human OX2R (Homo sapiens, UniProt O43614)
T1 construct: expressed in transfected cells; host or cells: Chinese hamster ovary (CHO) cells, kept under G418 selection
T1 sequence (O43614 1-444): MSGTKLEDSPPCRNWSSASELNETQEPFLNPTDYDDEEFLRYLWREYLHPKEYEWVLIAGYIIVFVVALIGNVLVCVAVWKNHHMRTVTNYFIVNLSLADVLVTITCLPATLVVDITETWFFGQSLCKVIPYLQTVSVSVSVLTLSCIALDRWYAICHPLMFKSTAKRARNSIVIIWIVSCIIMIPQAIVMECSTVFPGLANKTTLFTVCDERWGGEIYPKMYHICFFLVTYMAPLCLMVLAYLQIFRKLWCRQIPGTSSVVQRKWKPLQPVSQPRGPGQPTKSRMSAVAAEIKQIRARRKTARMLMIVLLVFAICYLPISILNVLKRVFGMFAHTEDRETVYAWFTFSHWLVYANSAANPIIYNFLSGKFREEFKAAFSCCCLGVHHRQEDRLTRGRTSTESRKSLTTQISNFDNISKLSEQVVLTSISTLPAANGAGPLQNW
Assay: IPOne (IP-One) orexin receptor agonist assay in CHO cells expressing human OX2R
Assay type: cell-based
Details: for EC50: CHO cells expressing human OX2R, IP-One detection, 2 hours incubation, four parameter logistic fit, read-out: OX2R Potency, EC50; for % max agonist effect (Emax): human OX2R, percentage of sample raw value/mean max effect (reference compound at 1 uM with 100% activity)

EC50	% max agonist effect (Emax)	Structure (SMILES)
670 nM	101.5%	Cc1nnc(N2CC[C@H](NS(C)(=O)=O)[C@@H]2CO[C@H]2CC[C@@H](c3ccccc3)CC2)o1 [Example 37, N-((2R,3 S)-1-(5-methyl-1,3,4-oxadiazol-2-yl)-2-((((CIS)-4-phenylcyclohexyl)oxy)methyl)pyrrolidin-3-yl)methanesulfonamide]
736 nM	98.8%	CS(=O)(=O)N[C@H]1CCN(c2ncccc2F)[C@H]1CO[C@H]1CC[C@@H](c2ccccc2)CC1 [Example 131, N-((2R,3S)-1-(3-fluoropyridin-2-yl)-2-((((CIS)-4-phenylcyclohexyl)oxy)methyl)pyrrolidin-3-yl)methanesulfonamide]
5770 nM	78.6%	CS(=O)(=O)N[C@H]1CCN(c2ccnc(C#N)c2)[C@H]1CO[C@H]1CC[C@@H](c2ccccc2)CC1 [Example 25, N-((2R,3S)-1-(2-cyanopyridin-4-yl)-2-((((CIS)-4-phenylcyclohexyl)oxy)methyl)pyrrolidin-3-yl)methanesulfonamide]
4000 nM	70.8%	CS(=O)(=O)N[C@H]1CCN(c2ccc(C(F)(F)F)cn2)[C@H]1CO[C@H]1CC[C@@H](c2ccccc2)CC1 [Example 130, N-((2R,3S)-2-((((CIS)-4-phenylcyclohexyl)oxy)methyl)-1-(5-(trifluoromethyl)pyridin-2-yl)pyrrolidin-3-yl)methanesulfonamide]
366 nM	100.0%	Cc1cnc(N2CC[C@H](NS(C)(=O)=O)[C@@H]2CO[C@H]2CC[C@@H](c3ccccc3)CC2)n1C [Example 29, N-((2R,3S)-1-(1,5-dimethyl-1H-imidazol-2-yl)-2-((((CIS)-4-phenylcyclohexyl)oxy)methyl)pyrrolidin-3-yl)methanesulfonamide]
–	101.1%	CS(=O)(=O)N[C@H]1CCN(c2ncccc2O)[C@H]1CO[C@H]1CC[C@@H](c2ccccc2)CC1 [Example 135, N-((2R,3S)-1-(3-hydroxypyridin-2-yl)-2-((((CIS)-4-phenylcyclohexyl)oxy)methyl)pyrrolidin-3-yl)methanesulfonamide]
2790 nM	54.1%	CS(=O)(=O)N[C@H]1CCN(c2ccc(OCCF)cc2)[C@H]1CO[C@H]1CC[C@@H](c2ccccc2)CC1 [Example 36, N-((2R,3S)-1-(4-(2-fluoroethoxy)phenyl)-2-((((CIS)-4-phenylcyclohexyl)oxy)methyl)pyrrolidin-3-yl)methanesulfonamide]
1190 nM	100%	COC(=O)c1cnc(N2CC[C@H](NS(C)(=O)=O)[C@@H]2CO[C@H]2CC[C@@H](c3ccccc3)CC2)s1 [Example 104, methyl 2-((2R,3S)-3-(methylsulfonamido)-2-((((CIS)-4-phenylcyclohexyl)oxy)methyl)pyrrolidin-1-yl)thiazole-5-carboxylate]
149 nM	100.0%	Cc1c(N2CC[C@H](NS(C)(=O)=O)[C@@H]2CO[C@H]2CC[C@@H](c3ccccc3)CC2)cnn1C [Example 30, N-((2R,3S)-1-(1,5-dimethyl-1H-pyrazol-4-yl)-2-((((CIS)-4-phenylcyclohexyl)oxy)methyl)pyrrolidin-3-yl)methanesulfonamide]
148 nM	99.9%	Cn1ccc(=O)c(F)c1N1CC[C@H](NS(C)(=O)=O)[C@@H]1CO[C@H]1CC[C@@H](c2ccccc2)CC1 [Example 86, N-((2R,3S)-1-(3-fluoro-1-methyl-4-oxo-1,4-dihydropyridin-2-yl)-2-((((CIS)-4-phenylcyclohexyl)oxy)methyl)pyrrolidin-3-yl)methanesulfonamide]
1830 nM	84.6%	COc1cccc(N2CC[C@H](NS(C)(=O)=O)[C@@H]2CO[C@H]2CC[C@@H](c3ccccc3)CC2)c1 [Example 146, N-((2R,3S)-1-(3-methoxyphenyl)-2-((((CIS)-4-phenylcyclohexyl)oxy)methyl)pyrrolidin-3-yl)methanesulfonamide]
70.2 nM	98.9%	CS(=O)(=O)N[C@H]1CCN(c2nccs2)[C@H]1CO[C@H]1CC[C@@H](c2ccccc2)CC1 [Example 27, N-((2R,3S)-2-((((CIS)-4-phenylcyclohexyl)oxy)methyl)-1-(thiazol-2-yl)pyrrolidin-3-yl)methanesulfonamide]
896 nM	89.7%	Cn1cc(N2CC[C@H](NS(C)(=O)=O)[C@@H]2CO[C@H]2CC[C@@H](c3ccccc3)CC2)cn1 (relative stereo) [Example 2, N-((CIS)-1-(1-methyl-1H-pyrazol-4-yl)-2-((((CIS)-4-phenylcyclohexyl)oxy)methyl)pyrrolidin-3-yl)methanesulfonamide]
1.2 nM	99.9%	CS(=O)(=O)N[C@H]1CCN(c2nccc(O)c2F)[C@H]1CO[C@H]1CC[C@@H](c2ccccc2)CC1 [Example 72, N-((2R,3S)-1-(3-fluoro-4-hydroxypyridin-2-yl)-2-((((CIS)-4-phenylcyclohexyl)oxy)methyl)pyrrolidin-3-yl)methanesulfonamide]
105 nM	100.0%	Cn1ccnc1N1CC[C@H](NS(C)(=O)=O)[C@@H]1CO[C@H]1CC[C@@H](c2ccccc2)CC1 [Example 28, N-((2R,3S)-1-(1-methyl-1H-imidazol-2-yl)-2-((((CIS)-4-phenylcyclohexyl)oxy)methyl)pyrrolidin-3-yl)methanesulfonamide]
17.9 nM	102%	CS(=O)(=O)N[C@H]1CCN(c2cscn2)[C@H]1CO[C@H]1CC[C@@H](c2ccccc2)CC1 [Example 110, N-((2R,3S)-2-((((CIS)-4-phenylcyclohexyl)oxy)methyl)-1-(thiazol-4-yl)pyrrolidin-3-yl)methanesulfonamide]
0.58 nM	100.7%	CS(=O)(=O)N[C@H]1CCN(c2nccc(O)c2F)[C@H]1CO[C@H]1CC[C@@H](c2ccccc2)CC1 [Example 117, N-((2R,3S)-1-(3-fluoro-4-hydroxypyridin-2-yl)-2-((((CIS)-4-phenylcyclohexyl)oxy)methyl)pyrrolidin-3-yl)methanesulfonamide]
258 nM	97.7%	CS(=O)(=O)N[C@H]1CCN(c2cncc(O)n2)[C@H]1CO[C@H]1CC[C@@H](c2ccccc2)CC1 [Example 149, N-((2R,3S)-1-(6-hydroxypyrazin-2-yl)-2-((((CIS)-4-phenylcyclohexyl)oxy)methyl)pyrrolidin-3-yl)methanesulfonamide]
0.23 nM	100.5%	C[C@@H]1C[C@H](NS(=O)(=O)N(C)C)[C@H](CO[C@H]2CC[C@@H](c3cccc(F)c3)CC2)N1c1cc(O)c(Cl)cn1 [Example 95, N′-((2R,3S,5R)-1-(5-chloro-4-hydroxypyridin-2-yl)-2-((((CIS)-4-(3-fluorophenyl)cyclohexyl)oxy)methyl)-5-methylpyrrolidin-3-yl)-N,N-dimethyl-sulfamide]

Structure (SMILES)	EC50	% max agonist effect (Emax)
Cn1cnc(N2CC[C@H](NS(C)(=O)=O)[C@@H]2CO[C@H]2CC[C@@H](c3ccccc3)CC2)n1 (relative stereo) [Example 5, N-((CIS)-1-(1-methyl-1H-1,2,4-triazol-3-yl)-2-((((CIS)-4-phenylcyclohexyl)oxy)methyl)pyrrolidin-3-yl)methanesulfonamide]	5960 nM	80.4%
